Data reported in patent US20070254891A1, “Crystalline forms of 4-(2-fluorophenyl)-6-methyl-2-(piperazin-1-yl)thieno[2,3-d]pyrimidine” (Dynogen Pharmaceuticals, Inc., priority 2006, published 2007).

Columns and labels:
[1] = tested on: small intestinal transit; assay: Small Intestinal Transit Rodent Model (charcoal meal); format: in vivo, rat; details: for Small intestinal transit, Mean (% of total length): 15 min test period
Procedure: Following an overnight fast, rats were brought to the laboratory in their home cages and received an i.p. injection of one of the following: […] Control rats received no treatment. The treated rats were placed back in the home cages and after 30 min, were fed a 2 mL charcoal meal via an oral gavage. Small intestinal transit was measured following 15 min test-period. Each rat was placed briefly in a glass chamber with IsoFlo for anesthesia and sacrificed. The stomach and the small intestine were removed and the total length of the small intestine was measured. Transit was then measured as the distance that the charcoal meal had traveled along the small intestine and expressed as % of the total length. Animals were randomly assigned to experimental groups and experiments were performed as illustrated in Table 11. Small intestinal transit in rats was investigated by the passage of a charcoal meal along the small intestine during a defined time period (15-min). The animals were deprived of food for 12-16 hrs prior to the experiments. Rats were given a charcoal meal (a mixture of charcoal, gum arabic, and distilled water) as a 2 mL oral gavage and were sacrificed after a 15-min test period. The distance traveled by the charcoal meal was quantified as a percent of the small intestinal length, using the following equation: Transit (%)=cm traveled by meal/cm total small intestinal length×100 […]

[2] = tested on: stress-induced accelerated colonic transit; assay: Water avoidance stress (WAS) model of increased colonic transit, fecal pellet output; format: in vivo, rat
Text: At the end of the 1-hour stress period, the fecal pellets were counted and recorded. WAS causes an acceleration of colonic transit, which can be quantified by counting the number of fecal pellets, produced during the stress procedure. Rats were placed for 1-hour into a stress chamber onto a raised platform 7.5 cm×7.5 cm×9 cm (L×W×H) in the center of a stress chamber filled with room temperature water 8 cm in depth. The stress chamber was constructed from a rectangular plastic tub (40.2×60.2×31.2 cm). […] Ondansetron was supplied from APIN Chemicals LTD. […] MCI-225 was provided by Mitsubishi Pharma Corp. All drugs were dissolved in a vehicle of 100% propylene glycol (1,2-propanediol) by sonicating for a period of 10 minutes. Propylene glycol was obtained from Sigma Chemical Co. […] All drugs and the vehicle were administered as an i.p. injection in a volume of 0.2 mL.

[3] = tested on: acetic acid-induced colonic hypersensitivity; assay: Visceromotor response to colorectal distension in acetic acid-sensitized rats
Procedure: The visceromotor behavioral response to colorectal distension was measured by counting the number of abdominal contractions recorded by a strain gauge sutured onto the abdominal musculature as described in Gunter et al., Physiol. […] A 5 cm latex balloon catheter inserted via the anal canal into the colon was used for colorectal distensions. Constant pressure tonic distensions were performed in a graded manner (15, 30 or 60 mmHg) and were maintained for a period of 10 min and the numbers of abdominal muscle contractions were recorded to measure the level of colonic sensation. A 10 min recovery was allowed between distensions.
J. Physiol. […] In the present study, a low concentration of acetic acid (1.5 ml, 0.6%) was administered intracolonically to sensitize the colon without causing histological damage to the colonic mucosa as described in previous studies (Gunter et al., supra).
Injection volume was 0.2 mL using 100% propylene glycol as the vehicle. Three consecutive colorectal distensions at 15, 30 or 60 mmHg applied at 10-min intervals were recorded. Visceromotor responses were evaluated as the number of abdominal muscle contractions recorded during the 10-min periods of colorectal distension.
Adult male rats were used in the study. […] Specifically, rats were anesthetized with Isoflurane (2%) and were instrumented with a strain gauge force transducer for recording of abdominal muscle contractions. A latex balloon and catheter were inserted 11 cm into the colon. The animals were allowed a 30-min period to completely recover from the anesthesia and were then subjected to intracolonic infusion of acetic acid (1.5 mL, 0.6%). An additional 30-min period was allowed for sensitization of the colon. […] The protocol for colorectal distension was initiated 30-min post drug administration. After a basal reading of the number of abdominal contractions with the balloon inserted but not distended, three consecutive 10-min lasting colorectal distensions at 15, 30, and 60 mmHg were applied at 10-min intervals. Colorectal sensitivity was evaluated by counting the number of reflex abdominal contractions (i.e. the visceromotor response) observed within each distension period.
The visceromotor behavioral response to colorectal distension was measured by counting the number of abdominal contractions recorded by a strain gauge sutured onto the abdominal musculature as previously described Gunter et al., referenced above. Colorectal distensions were carried out utilizing a 5 cm latex balloon catheter inserted into the colon via the anal canal. Constant pressure tonic distensions were performed in a graded manner, i.e., the pressure was increased to the desired level of 15, 30, or 60 mmHg and then maintained for a period of 10 minutes during which the number of abdominal contractions were recorded to measure the level of colonic sensation. Ten minute recovery periods were allowed following each distension.

[4] = tested on: retching and vomiting induced by cisplatin; assay: Cisplatin-induced emesis in the ferret; format: in vivo, ferret (Mustela putorius furo)
Procedure: Following administration of the cisplatin and either MCI-225, ondansetron or vehicle alone, the occurrence of retching and vomiting was monitored for a period of 6 hours. […] Vomiting was defined as the forceful oral expulsion of upper gastrointestinal contents. The latency of the retching or vomiting response and the number of episodes were recorded for each animal and summarized for each experimental group (Wright et al., Infect. […] Following one hour of acclimation to the observation cage, ferrets received an intraperitoneal (i.p.) injection of cisplatin (5 mg/kg in 5 mL) followed in about 2 minutes by i.p. injection of a single dose of MCI-225 or ondansetron (Rudd and Naylor, Eur. J. Pharmacol., 322: 79-82 (1997)). […] Each animal received a single-dose drug treatment. In addition, three animals received an initial dose (30 mg/kg i.p.) and a second MCI-225 injection (30 mg/kg i.p.) 180 minutes following the initial dose. […] All groups were randomized.

## CNCCC(Oc1ccccc1OC)c1ccccc1 (stereo not drawn) [Nisoxetine]
[1]; 3 mg/kg i.p.
  Small intestinal transit, Mean (% of total length): 40.3%
[1]; 10 mg/kg i.p.
  Small intestinal transit, Mean (% of total length): 38.6%
[1]; 30 mg/kg i.p.
  Charcoal meal completely retained in the stomach: 4 out of 5
  Effect on small intestinal transit: almost completely inhibited the transit
  Small intestinal transit, Mean (% of total length): 4.7%
[1]; 3 or 10 mg/kg i.p.
  Effect on small intestinal transit: tendency to decrease
[2]; 3, 10 or 30 mg/kg i.p.
  WAS-induced fecal pellet output during 1 hour: reduced by all doses
[2]; 10 and 30 mg/kg i.p.
  Fecal pellets produced during WAS compared to the vehicle treated group: significantly fewer
[3]; 30 mg/kg i.p.
  Behavior in the home cage during the experiments: increased exploratory behavior
[3]; 3, 10 or 30 mg/kg i.p.
  Visceromotor response to colorectal distension: no significant effect

## Cc1nccn1CC1CCc2c(c3ccccc3n2C)C1=O (stereo not drawn) [Ondansetron, reference compound]
[4]; 5 mg/kg and 10 mg/kg i.p.
  Number of emetic events induced by cisplatin: dose-dependently reduced
[4]; 5 mg/kg i.p.
  Latency: 288 ± 4 min
  Retches (360 min): 11.2 ± 7.0
  Total Events: 11.5 ± 7.2
  Vomits (360 min): 0.3 ± 0.2
[4]; 10 mg/kg i.p.
  Latency: 313 ± 32 min
  Retches (360 min): 2.4 ± 1.6
  Total Events: 2.4 ± 1.6
  Vomits (360 min): 0.0 ± 0.0
[1]; 1 mg/kg i.p.
  Small intestinal transit, Mean (% of total length): 27.6%
[1]; 5 mg/kg i.p.
  Small intestinal transit, Mean (% of total length): 32.1%
[1]; 10 mg/kg i.p.
  Small intestinal transit, Mean (% of total length): 18.4%
[1]; 1, 5 or 10 mg/kg i.p.
  Effect on small intestinal transit: significant reduction
[2]; 1, 5 and 10 mg/kg i.p.
  Stress-induced fecal pellet output during 1 hour of WAS: dose-dependent inhibition
[3]; 10 mg/kg i.p.
  Responses to moderate (30 mmHg) and high (60 mmHg) intraluminal pressure: did not abolish the responses
[3]; 1, 5 or 10 mg/kg i.p.
  Behavioral activity of the rats: No significant changes
[3]; 1, 5 or 10 mg/kg i.p., 15, 30, 60 mmHg
  Number of abdominal contractions (visceromotor response): dose-dependent decrease
